Molecular target: CDK2/Cyclin E1 full length (Homo sapiens (Human), UniProt P24941)
Experiment: CDK2/Cyclin E1 full length mobility shift assay
Type: biochemical

Row | Compound | Ki [nM]
1 | COc1ccc(CC(=O)Nc2cc([C@H]3CC[C@@H](OC(=O)N4C[C@@H](C#N)[C@@H]4C)C3)[nH]n2)cn1 (single isomer, unassigned) [Example 157] | 1.86
2 | CC[C@H](C)NC(=O)O[C@@H]1CC[C@H](c2cc(NC(=O)Cc3cn(C)nn3)n[nH]2)C1 [Example 331, (1R,3S)-3-(3-{[(1-methyl-1H-1,2,3-triazol-4-yl)acetyl]amino}-1H-pyrazol-5-yl)cyclopentyl (2S)-butan-2-ylcarbamate] | 1.49
3 | Cc1cnc(CC(=O)Nc2cc([C@H]3CC[C@@H](OC(=O)NC4(C)CCOC4)C3)[nH]n2)o1 (single isomer, unassigned) [Example 478] | 1.13
4 | COCc1cc(C(=O)Nc2cc([C@H]3CC[C@@H](OC(=O)NC4(C)CCOC4)C3)[nH]n2)n(C)n1 (single isomer, unassigned) [Example 488] | 1.4
5 | CC(C)n1cc(CC(=O)Nc2cc([C@H]3CC[C@@H](OC(=O)NC4(C)CC4)C3)[nH]n2)nn1 [Example 436, (1R,3S)-3-[3-({[1-(propan-2-yl)-1H-1,2,3-triazol-4-yl]acetyl}amino)-1H-pyrazol-5-yl]cyclopentyl (1-methylcyclopropyl)carbamate] | 3.3
6 | CC(C)NC(=O)O[C@@H]1CC[C@H](c2cc(NC(=O)c3cncn3C)n[nH]2)C1 [Example 260, (1R,3S)-3-(3-{[(1-methyl-1H-imidazol-5-yl)carbonyl]amino}-1H-pyrazol-5-yl)cyclopentyl propan-2-ylcarbamate] | 2.89
7 | O=C(Cc1ccno1)Nc1cc([C@H]2CC[C@@H](OC(=O)NCC(F)F)C2)[nH]n1 [Example 246, (1R,3S)-3-{3-[(1,2-oxazol-5-ylacetyl)amino]-1H-pyrazol-5-yl}cyclopentyl (2,2-difluoroethyl)carbamate] | 3.29
8 | CC(C)NC(=O)O[C@@H]1CC[C@H](c2cc(NC(=O)Cc3cnc(C(F)(F)F)cn3)n[nH]2)C1 [Example 287, (1R,3S)-3-[3-({[5-(trifluoromethyl)pyrazin-2-yl]acetyl}amino)-1H-pyrazol-5-yl]cyclopentyl propan-2-ylcarbamate] | 2.26
9 | CC1(NC(=O)O[C@@H]2CC[C@H](c3cc(NC(=O)Cc4ncccc4F)n[nH]3)C2)CC1 [Example 429, (1R,3S)-3-(3-{[(3-fluoropyridin-2-yl)acetyl]amino}-1H-pyrazol-5-yl)cyclopentyl (1-methylcyclopropyl)carbamate] | 1.15
10 | CCCN(CCC)C(=O)O[C@@H]1CC[C@H](c2cc(NC(=O)Cc3ccno3)n[nH]2)C1 [Example 225, (1R,3S)-3-{3-[(1,2-oxazol-5-ylacetyl)amino]-1H-pyrazol-5-yl}cyclopentyl dipropylcarbamate] | 2.67
11 | Cc1ccc(F)c(CC(=O)Nc2cc([C@H]3CC[C@@H](OC(=O)NC4(C)CC4)C3)[nH]n2)n1 [Example 435, (1R,3S)-3-(3-{[(3-fluoro-6-methylpyridin-2-yl)acetyl]amino}-1H-pyrazol-5-yl)cyclopentyl (1-methylcyclopropyl)carbamate] | 1.49
12 | Cc1cnc(CC(=O)Nc2cc([C@H]3CC[C@@H](OC(=O)N4CC[C@@H]4C)C3)[nH]n2)cn1 [Example 591, (1R,3S)-3-(3-{[(5-methylpyrazin-2-yl)acetyl]amino}-1H-pyrazol-5-yl)cyclopentyl (2S)-2-methylazetidine-1-carboxylate] | 1.67
13 | Cc1ccnc(CC(=O)Nc2cc([C@H]3CC[C@@H](OC(=O)NC4(C)CC4)C3)[nH]n2)c1 [Example 425, (1R,3S)-3-(3-{[(4-methylpyridin-2-yl)acetyl]amino}-1H-pyrazol-5-yl)cyclopentyl (1-methylcyclopropyl)carbamate] | 1.05
14 | CC(C)NC(=O)O[C@@H]1CC[C@H](c2cc(NC(=O)Cc3ccccn3)n[nH]2)C1 [Example 265, (1R,3S)-3-{3-[(pyridin-2-ylacetyl)amino]-1H-pyrazol-5-yl}cyclopentyl propan-2-ylcarbamate] | 1.91
15 | COc1ccc(CC(=O)Nc2cc([C@H]3CC[C@@H](OC(=O)NC4(C)CCOC4)C3)[nH]n2)cc1 (single isomer, unassigned) [Example 483] | 0.32
16 | C[C@]1(O)CC[C@H](NC(=O)O[C@H]2CC[C@@H](c3cc(NC(=O)Cc4ccc(F)cc4)n[nH]3)C2)CC1 [Example 561, (1S,3R)-3-(3-{[(4-fluorophenyl)acetyl]amino}-1H-pyrazol-5-yl)cyclopentyl (trans-4-hydroxy-4-methylcyclohexyl)carbamate] | 1.8
17 | CC1(NC(=O)O[C@@H]2CC[C@H](c3cc(NC(=O)Cc4cnc(C(F)(F)F)cn4)n[nH]3)C2)CC1 [Example 130] | 0.25
18 | Cc1nnc(CC(=O)Nc2cc([C@H]3CC[C@@H](OC(=O)NC(C)(C)C)C3)[nH]n2)s1 [Example 305, (1R,3S)-3-(3-{[(5-methyl-1,3,4-thiadiazol-2-yl)acetyl]amino}-1H-pyrazol-5-yl)cyclopentyl tert-butylcarbamate] | 0.52
19 | Cc1cccnc1CC(=O)Nc1cc([C@H]2CC[C@@H](OC(=O)NC3(C)CC3)C2)[nH]n1 [Example 427, (1R,3S)-3-(3-{[(3-methylpyridin-2-yl)acetyl]amino}-1H-pyrazol-5-yl)cyclopentyl (1-methylcyclopropyl)carbamate] | 1.78
20 | Cc1ncc(CC(=O)Nc2cc([C@H]3CC[C@@H](OC(=O)NCC(F)(F)F)C3)[nH]n2)s1 [Example 254, (1R,3S)-3-(3-{[(2-methyl-1,3-thiazol-5-yl)acetyl]amino}-1H-pyrazol-5-yl)cyclopentyl (2,2,2-trifluoroethyl)carbamate] | 2.17
21 | COc1ccc(CC(=O)Nc2cc([C@@H]3CC[C@H](OC(=O)N4C[C@@](C)(O)[C@@H]4C)C3)[nH]n2)cn1 [Example 626, (1S,3R)-3-(3-{[(6-methoxypyridin-3-yl)acetyl]amino}-1H-pyrazol-5-yl)cyclopentyl (2S,3R)-3-hydroxy-2,3-dimethylazetidine-1-carboxylate] | 4.73
22 | COc1ncccc1CC(=O)Nc1cc([C@H]2CC[C@@H](OC(=O)NC(C)(C)C)C2)[nH]n1 [Example 307, (1R,3S)-3-(3-{[(2-methoxypyridin-3-yl)acetyl]amino}-1H-pyrazol-5-yl)cyclopentyl tert-butylcarbamate] | 0.73
23 | Cc1cnc(CC(=O)Nc2cc([C@H]3CC[C@@H](OC(=O)N[C@@H](C)CF)C3)[nH]n2)o1 [Example 379, (1R,3S)-3-(3-{[(5-methyl-1,3-oxazol-2-yl)acetyl]amino}-1H-pyrazol-5-yl)cyclopentyl [(2S)-1-fluoropropan-2-yl]carbamate] | 3.05
24 | Cn1ccc(CC(=O)Nc2cc([C@H]3CC[C@@H](OC(=O)NC4(C)CC4)C3)[nH]n2)n1 [Example 421, (1R,3S)-3-(3-{[(1-methyl-1H-pyrazol-3-yl)acetyl]amino}-1H-pyrazol-5-yl)cyclopentyl (1-methylcyclopropyl)carbamate] | 0.94
25 | CC(CC(F)(F)F)N(C)C(=O)O[C@@H]1CC[C@H](c2cc(NC(=O)Cc3ccno3)n[nH]2)C1 (single isomer, unassigned) [Example 89] | 0.85
26 | CC(CC(F)(F)F)N(C)C(=O)O[C@@H]1CC[C@H](c2cc(NC(=O)c3cnnn3C)n[nH]2)C1 (single isomer, unassigned) [Example 411] | 2.58
